Consider three compounds from patent publication US10610582B2, “Compound and method for vaccination and immunisation” (PCI Biotech AS, priority 2013, dated 2020).

Read-outs that look alike come from different tables or passages of the source.

In one assay the test system is IFN-γ. It counts as in vivo, C57BL/6 mice. The note with it: day 14 spleen, 10 μg OVA + labelled TLR ligand + PCI, compared with other groups.
For the next assay, the system named is IL-2. It counts as in vivo, C57BL/6 mice. The note with it: day 14 spleen, 10 μg OVA + labelled TLR ligand + PCI, compared with other groups.
For a further assay, the system named is OVA-specific CD8 T-cells. Description: Vaccination with OVA, Poly(IC) or CpG ODN2395 in mice given OT-1 cells: OVA-specific CD8 T-cells in blood by flow cytometry (Example 3). It is filed as in vivo, C57BL/6 mice. The note with it: day 7. The protocol: One day prior to the immunisation, spleens and lymph nodes were isolated from female OT-1 mice, and erythrocytes were removed by lysis (RBC Lysing Buffer Hybri-Max from Sigma-Aldrich) from the homogenised cell suspensions. […] One day or 8 hours later, mice were bled by tail bleeding, and the blood was collected in heparin-containing tubes for analysis of the baseline frequency of OVA-specific CD8 T cells.
The illumination time was 6 minutes.
At the end of the experiment (day 14), the mice were euthanized and the splenocytes analysed ex vivo.
On the technique in general: In flow cytometry, cells or beads pass a laser one at a time.

Assay [1] has as its system antigen specific CD8 T-cells. It is filed as in vivo, C57BL/6 mice. The note with it: particularly after 2nd immunisation; 200 μg OVA + 50 μg poly(IC) + PCI (150 μg TPCS2a + light), group 5. From the text:
The following experimental groups were included:

Assay [2] deals with antigen-specific CD8+ T-cells (TRP-2 pentamer). Description: PCI with melanoma antigen peptides (TRP-2 and gp100) and poly(IC) in normal mice, TRP-2 pentamer flow cytometry (Example 6). It counts as in vivo, C57BL/6 mice. The note with it: after 2nd immunisation.
Assay [3] has as its system antigen specific CD8 T-cells. It is filed as in vivo, C57BL/6 mice. The note with it: 3rd immunisation (day 51) with poly(IC)+PCI after two immunisations with poly(IC) only, group 2. The protocol:
The generation of immunological memory was tested by a 3rd immunisation at day 51 with a poly(IC)+PCI treatment. […]

For assay [4], the system named is antigen specific CD8 T-cells. It is filed as in vivo, C57BL/6 mice. The note with it: 200 μg OVA + 10 μg poly(IC) injected 2 h before illumination, TPCS2a 150 μg 18 h before illumination. As to the method:
In all groups TPCS2a was injected 18 h before illumination, while OVA antigen and poly(IC) was either injected 18 h before illumination in a mixture with TPCS2a, or 2 h before illumination as a separate injection. Illumination was for 6 min with the LumiSource illumination device. […]

Assay [5] deals with antigen specific CD8 T-cells (HPV pentamer). Kind of assay: PCI with HPV peptide antigen and poly(IC) in normal mice, HPV pentamer flow cytometry (Example 12). The note with it: after three immunisations; 50 μg HPV peptide + 10 μg poly(IC) twice, 3rd with poly(IC) + PCI (100 μg TPCS2a + light), group 6.
Assay [6] shares this test system. Description: PCI with HPV long peptide antigen and poly(IC) in normal mice, HPV pentamer flow cytometry (Example 15).
For assay [7] the test system is unchanged. Description: PCI with HPV short peptide antigen and poly(IC) in normal mice, HPV pentamer flow cytometry (Example 16).
For assay [8], the system named is antigen specific CD8 T-cells.
[9] abbreviates: 10 μg OVA with the labelled agent alone (50 μg ODN2395 CpG or 50 μg Poly(IC) without PCI; PCI = 150 μg TPCS2a + light without adjuvant).
Setting [10] is: TRP-2 + gp100 peptides (50 μg each) with the labelled agent alone (10 μg poly(IC), or PCI = 100 μg TPCS2a + light), vs untreated.
Setting [11] is: HPV short peptide with only the labelled agent (only p(IC) or only PCI) for both immunisations.

In the case of `CCOCc1nc2c(N)nc3ccccc3c2n1CC(C)(C)O` [R848, 1-[4-amino-2-(ethoxymethyl)imidazo[4,5-c]quinolin-1-yl]-2-methylpropan-2-ol], the “IFN-γ production in total spleen cells (ELISA)” value in the assay on IFN-γ is “highest”. Moreover, in the assay on IL-2, the “IL-2 production in total spleen cells (ELISA)” value is reported as “highest”.

On to “Polyinosine-polycytidylic acid [Poly(IC)]”, for which the “% antigen-specific, CD44+ cells of the total CD8+ cells in blood” value with OVA-specific CD8 T-cells (10 μg OVA + 50 μg labelled adjuvant combined with PCI (150 μg TPCS2a + light)) is “clear synergistic effect”; in the assay on OVA-specific CD8 T-cells (setting [9]) it was “no significant”. Moreover, the “% antigen-specific, CD44+ cells of the total CD8+ cells” value is reported as “substantially better immunisation than only poly(IC) (group 4) or only PCI (group 3)” in [1]; “did not seem to boost immunisation to any significant degree” in [3]; “immune response is enhance” in assay [4]; “required to achieve an immune response” in assay [8] (10 μg OVA + poly(IC) (50 μg 1st, 10 μg 2nd) + red light PCI, group 6); “substantially better” in [8] (100 μg OVA + poly(IC) (50 μg 1st, 10 μg 2nd) + red light PCI, group 7, vs antigen alone). Moreover, the “% antigen-specific, CD44+ cells of the total CD8+ cells (TRP-2 pentamer)” value in [2] (setting [10]) is on record as “no significant increase in antigen-specific cells”; in assay [2] (TRP-2 + gp100 peptides + 10 μg poly(IC) + PCI (100 μg TPCS2a + light), group 4), “clear synergistic effect leading to a significant increase in the number of antigen-specific CD8+ T-cells”. Besides, the “% antigen-specific, CD44+ cells of the total CD8+ cells (HPV pentamer)” value (from here on “% antigen-specific, CD44+ cells … (HPV pentamer)”) was “HPV-specific immune response was induced” in assay [5]; “no effect” in assay [6] (HPV long peptide + 10 μg p(IC) twice, without PCI, group 2); “weaker, but still significant immune response” in assay [6] (HPV long peptide, one immunisation with PCI+p(IC), one with only PCI, groups 4 and 5); “strong HPV-specific immune response” in assay [6] (after two immunisations, both with 50 μg HPV long peptide + 10 μg p(IC) + PCI (100 μg TPCS2a + light), group 3); “no immune response” in assay [7] (setting [11]); “significant immune response” in assay [7] (HPV short peptide, 1st immunisation p(IC)+PCI, 2nd immunisation PCI only, group 6). Further, the “% antigen-specific, CD44+ cells … (HPV pentamer)” value in assay [7] (after two immunisations, both with 50 μg HPV short peptide + 10 μg p(IC) + PCI (100 μg TPCS2a + light), group 5) is recorded as “significant immune response”.

As for tetraphenyl chlorin disulfonate [PCI], in the assay with OVA-specific CD8 T-cells (setting [9]), the “% antigen-specific, CD44+ cells of the total CD8+ cells in blood” value was “substantially more potent than either of these adjuvants”. In addition, in assay [2] (setting [10]), the “% antigen-specific, CD44+ cells of the total CD8+ cells (TRP-2 pentamer)” value is “no significant increase in antigen-specific cells”. The “% antigen-specific, CD44+ cells … (HPV pentamer)” value in assay [7] (setting [11]) is “no immune response”. Besides, in [8] (10 μg OVA alone or with red light PCI (150 μg TPCS2a, 652 nm) only, after 1st and 2nd immunisation), the “% antigen-specific, CD44+ cells of the total CD8+ cells” value is given as “no immunisation effect”.
